Assay results reported in PubChem BioAssay AID1963860 (Molecular Pharmacology Branch, DTP, NCI, 2024).

System: CN0375-F725-PDC KRAS spheroid viability
Test: Anticancer human tumor CN0375-F725-PDC patient-derived colon carcinoma cell line growth inhibition [KRAS2]
Conditions: spheroids with HUVEC and MSC; for IC50: curve of first compound; for viability, T/C: stronger effect = lower value
How it was run: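 Combination screen of spheroid viability in tumor-cell co-cultures with endothelial (HUVEC) and mesenchymal stem cell stroma. Each agent was tested in half-log dilutions, topping at clinical Cmax or at 10 microM without a known Cmax.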

[1] = second compound 0.0316 µM, first compound 0.01 µM
[2] = second compound 0.0316 µM, first compound 0.0316 µM
[3] = second compound 0.0316 µM, first compound 0.1 µM
[4] = second compound 0.0316 µM, first compound 0.316 µM
[5] = second compound 0.0316 µM, first compound 1 µM
[6] = second compound 0.0316 µM, first compound 3.16 µM
[7] = second compound 0.1 µM, first compound 0.01 µM
[8] = second compound 0.1 µM, first compound 0.0316 µM
[9] = second compound 0.1 µM, first compound 0.1 µM
[10] = second compound 0.1 µM, first compound 0.316 µM
[11] = second compound 0.1 µM, first compound 1 µM
[12] = second compound 0.1 µM, first compound 3.16 µM
[13] = second compound 0.316 µM, first compound 0.01 µM
[14] = second compound 0.316 µM, first compound 0.0316 µM
[15] = second compound 0.316 µM, first compound 0.1 µM
[16] = second compound 0.316 µM, first compound 0.316 µM
[17] = second compound 0.316 µM, first compound 1 µM
[18] = second compound 0.316 µM, first compound 3.16 µM
[19] = second compound 1 µM, first compound 0.01 µM
[20] = second compound 1 µM, first compound 0.0316 µM
[21] = second compound 1 µM, first compound 0.1 µM
[22] = second compound 1 µM, first compound 0.316 µM
[23] = second compound 1 µM, first compound 1 µM
[24] = second compound 1 µM, first compound 3.16 µM
[25] = second compound 3.16 µM, first compound 0.01 µM
[26] = second compound 3.16 µM, first compound 0.0316 µM
[27] = second compound 3.16 µM, first compound 0.1 µM
[28] = second compound 3.16 µM, first compound 0.316 µM
[29] = second compound 3.16 µM, first compound 1 µM
[30] = second compound 3.16 µM, first compound 3.16 µM
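Also: spheroids exposed to agents for 7 days.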

| SMILES | IC50 (second compound 0.0316 µM) [µM] | IC50 (second compound 0.1 µM) [µM] | IC50 (second compound 0.316 µM) [µM] | IC50 (second compound 1 µM) [µM] | IC50 (second compound 3.16 µM) [µM] | viability, T/C [1] [%] | viability, T/C [2] [%] | viability, T/C [3] [%] | viability, T/C [4] [%] | viability, T/C [5] [%] | viability, T/C [6] [%] | viability, T/C [7] [%] | viability, T/C [8] [%] | viability, T/C [9] [%] | viability, T/C [14] [%] | viability, T/C [15] [%] | viability, T/C [20] [%] | viability, T/C [21] [%] | viability, T/C [26] [%] | viability, T/C [27] [%] | other results |
| --- | --- | --- | --- | --- | --- | --- | --- | --- | --- | --- | --- | --- | --- | --- | --- | --- | --- | --- | --- | --- | --- |
| CC(=O)OC12COC1CC(O)C1(C)C(=O)C(O)C3=C(C)C(OC(=O)C(O)C(NC(=O)OC(C)(C)C)c4ccccc4)CC(O)(C(OC(=O)c4ccccc4)C21)C3(C)C (stereo not given) + C=CC(=O)N1CCN(c2nc(OCC3CCCN3C)nc3c2CCN(c2cccc4cccc(C)c24)C3)CC1CC#N | > 3.16 | > 3.16 | > 3.16 | > 3.16 | > 3.16 | 99.3 | 99.2 | 87.2 | 82.5 | 81.8 | 79.2 | 104 | 102 | 86.3 | 100 | 87.3 | 91.8 | 91.6 | 98.9 | 93.7 | viability, T/C [10]: 87%; viability, T/C [11]: 79.5%; viability, T/C [12]: 76.4%; viability, T/C [13]: 100%; viability, T/C [16]: 85.2%; viability, T/C [17]: 79.3%; viability, T/C [18]: 75.9%; viability, T/C [19]: 96.7%; viability, T/C [22]: 78.8%; viability, T/C [23]: 78.6%; viability, T/C [24]: 73.6%; viability, T/C [25]: 96.2%; viability, T/C [28]: 83.5%; viability, T/C [29]: 88.3%; viability, T/C [30]: 79% |
| CN(C)C/C=C/C(=O)Nc1cc2c(Nc3ccc(F)c(Cl)c3)ncnc2cc1O[C@H]1CCOC1 + C=CC(=O)N1CCN(c2nc(OCC3CCCN3C)nc3c2CCN(c2cccc4cccc(C)c24)C3)CC1CC#N | > 0.1 | > 0.1 | > 0.1 | > 0.1 | < 0.000316 | 84.8 | 82.7 | 76.4 | – | – | – | 87.7 | 80 | 77.5 | 73.4 | 76.7 | 75.6 | 74.1 | 10.6 | 10.4 | viability, T/C (second compound 0.0316 µM, first compound 0.000316 µM): 107%; viability, T/C (second compound 0.0316 µM, first compound 0.001 µM): 94.9%; viability, T/C (second compound 0.0316 µM, first compound 0.00316 µM): 88.8%; viability, T/C (second compound 0.1 µM, first compound 0.000316 µM): 105%; viability, T/C (second compound 0.1 µM, first compound 0.001 µM): 98.6%; viability, T/C (second compound 0.1 µM, first compound 0.00316 µM): 88%; viability, T/C (second compound 0.316 µM, first compound 0.000316 µM): 102%; viability, T/C (second compound 0.316 µM, first compound 0.001 µM): 101%; viability, T/C (second compound 0.316 µM, first compound 0.00316 µM): 84.2%; viability, T/C [13]: 81.5%; viability, T/C (second compound 1 µM, first compound 0.000316 µM): 90.6%; viability, T/C (second compound 1 µM, first compound 0.001 µM): 96.7%; viability, T/C (second compound 1 µM, first compound 0.00316 µM): 83.4%; viability, T/C [19]: 75.9%; viability, T/C (second compound 3.16 µM, first compound 0.000316 µM): 30.9%; viability, T/C (second compound 3.16 µM, first compound 0.001 µM): 24.6%; viability, T/C (second compound 3.16 µM, first compound 0.00316 µM): 8.56%; viability, T/C [25]: 9.52% |
| O=C(c1cc(Cc2n[nH]c(=O)c3ccccc23)ccc1F)N1CCN(C(=O)C2CC2)CC1 + C=CC(=O)N1CCN(c2nc(OCC3CCCN3C)nc3c2CCN(c2cccc4cccc(C)c24)C3)CC1CC#N | > 10 | > 10 | > 10 | > 10 | < 0.0316 | – | 104 | 104 | 99 | 102 | 99.4 | – | 108 | 107 | 101 | 107 | 100 | 102 | 34.1 | 29 | viability, T/C (second compound 0.0316 µM, first compound 10 µM): 94.7%; viability, T/C [10]: 101%; viability, T/C [11]: 98.8%; viability, T/C [12]: 104%; viability, T/C (second compound 0.1 µM, first compound 10 µM): 99.3%; viability, T/C [16]: 97.5%; viability, T/C [17]: 99.6%; viability, T/C [18]: 101%; viability, T/C (second compound 0.316 µM, first compound 10 µM): 92.5%; viability, T/C [22]: 97.9%; viability, T/C [23]: 90.6%; viability, T/C [24]: 103%; viability, T/C (second compound 1 µM, first compound 10 µM): 89%; viability, T/C [28]: 21.5%; viability, T/C [29]: 22.7%; viability, T/C [30]: 28.9%; viability, T/C (second compound 3.16 µM, first compound 10 µM): 8.54% |
